Laboratory results published in patent publication US20030215391A1, “Fluorescent agents for real-time measurement of organ function” (priority 2003, published 2003).

Assays:
[1] = (Bousquet, 1988); cited from earlier work
[2] = Fluorometric analysis (excitation and emission spectra); format: physicochemical; conditions: FIG. 4
Description: For the synthesis of a nile blue-DTPA conjugate, 0.1 g of DTPA dianhydride (ccDPTA) was dissolved in 6 ml of dimethyl sulfoxide (DMSO) in a round bottom flask. Ninety mg of nile blue were dissolved in DMSO and 36 μL of triethyl amine were added, turning the solution purple. The nile blue solution was added drop wise to the solution of ccDTPA while stirring. The solution turned blue. Thirty-eight μL of […] (TEA) were added to the final mixture, turning the solution purple. After mixing, the mixture was heated to 60° C. and stirred for 2 hours. The reaction mixture was then loaded onto a silica gel column and eluted with acetone:ethylacetate. The fractions corresponding to the nile blue-DTPA conjugate were pooled and evaporated, yielding a magenta colored oil. The oil was rechromatographed on a second silica gel column using acetone as eluant. The nile blue-DTPA conjugated fractions were pooled and rotate-evaporated to give a magenta colored oil. […]
The only group of chelating agents known to produce highly soluble and stable lanthanide chelates are the polyamino polyacetic acid analogs. […] The simplest initial approach was to study the fluorescence characteristics of the chelate between Eu and other already commercially available polyaminopoly bis (2-aminoethyl ether) acetic acids. […]

[3] = Solubility in aqueous media at physiological pH; format: physicochemical
Text: where R may be furoic acid, nicotinic acid, picolinic acid, or some other substituted aromatic acid. The subsituted tetrazacyclododecane (STACD) is produced by reacting the amine groups with a brominated acid. 6-Bromo-picolinic acid, 5-bromo-nicotinic acid, and 5-bromo-furoic acid are all appropriate for prepararing a STACD. However, not all of these molecules are soluble in aqueous media at physiological pH. For example, while the tetrafuroic acid derivative is soluble in physiological fluids, the tetranicotinic acid derivative is not. The derivative should be combined with a solubility enhancer, for example, […], to form a salt which is soluble at pH 7. Other solubility enhancers may also be employed to modify the solubility of the STACD complex.
Magnetic Resonance Imaging Contrast Agent: The molecules of the invention, especially TABFTA, STACD, and their derivatives, can also be used as contrast agents for magnetic resonance imaging (MRI). When chelated with lanthanide ions such as gadolinium (Gd^3+) or […], the resulting paramagnetic compound enhances the relaxation of hydrogen protons, increasing signal intensities in MRI imaging (Bousquet, 1988). The increased signal increases the signal-to-noise ratio, reducing imaging time. In addition, the contrast agent may increase specificity in diagnosis. […]

[4] = (Aime, 1995); cited from earlier work
[5] = chelate with europium; previous studies (Hemmila, 1984); cited from earlier work

Molecule: O=C([O-])CN1CCN(CC(=O)[O-])CCN(CC(=O)O)CCN(CC(=O)[O-])CC1.[Gd+3] [chelates of DOTA and gadolinium]
- distribution after intravenous injection [1]: extracellular space distribution
- excretion after intravenous injection [1]: excreted only by glomerular filtration

Molecule: CC[N+](CC)=c1ccc2nc3c(cc(N)c4ccccc43)oc-2c1 [nile blue]
- emission fluorescence wavelength [2]: 695 nm

Molecule: tetraazabycyclofurantetraacetate [TABFTA]
- water solubility [3]: water-soluble

Molecule: O=C(O)CN(CCN(CC(=O)O)CC(=O)O)CCN(CC(=O)O)CC(=O)O [DTPA, diethylenetriaminepentaacetic acid]
- affinity constant (k) [4]: 23

Molecule: O=C(O)CN(CCN(CC(=O)O)CC(=O)O)CC(=O)O [EDTA]
- fluorescence of the chelate [5]: essentially non-fluorescent
